Experimental data from patent publication US6947790B2, “Neurocognitive function EEG measurement method and system” (priority 2000, dated 2005).
Where two headings read alike, the source gives them in different places.

Tests used:
healthy subjects [1] = experiment: Experiment 5: subjective scales after alprazolam
Method: (§1) Experiment: The motivation behind this experiment was to evaluate whether EEG and/or behavioral indices could be used to detect cognitive side effects of a common psychiatric medication. […] It acts primarily on the GABAergic system, enhancing the inhibitory effects of this neurotransmitter. […] It adversely affects memory functions and psychomotor performance following acute administration, and its CNS effects can be detected in EEG measures. […] The experiment was performed according to a double blind, fully counterbalanced design, and all participation was fully informed and voluntary.
(§2) They then participated in three sessions: a training session and two experimental sessions. In the initial session, following informed consent procedures, subjects were familiarized with the recording methods and apparatus, and given a sham (placebo) drug dose. They then practiced the tasks until performance levels reached asymptote. […] Each session consisted of a pre-drug baseline-recording interval, followed by five post-drug recording intervals extending to 5 hours after drug administration. In the pre-drug interval and in each of the post-drug intervals EEG was recorded while subjects performed computer-presented tasks and while they rested quietly. The computerized tasks included easy and difficult versions of a sustained attention working memory task, where difficulty was manipulated by varying working memory load. Subjective scales were also used to assess drowsiness, mood, and perceived drug effects. The entire procedure, including preparation time and rest breaks lasted approximately 7 hours. Transportation home was provided for the subjects at the end of each experimental session.

healthy subjects [2] = experiment: Experiment 5: working memory task performance
Method: as §1, §2

healthy subjects [3] = experiment: Experiment 5: resting and task-related EEG and ERP; format: in vivo, human
Method: as §1, §2

healthy subjects [4] = experiment: Experiment 5: NCFC index; format: in vivo, human; conditions: FIG. 11
Source text: The resulting function is structured such that improvement in cognitive function in response to some intervention results in a positive deviation of the index, and impairment in cognitive function in response to some intervention results in a negative deviation of the index. […] In the first and second periods following drug ingestion the change in index values were highly significant across the group of subjects (t(9)=−4.02, p<0.004 and t(9)=−3.54, p<0.007 for t1 and t2 respectively), with some recovery in the later test periods (p's<0.05 for the rest of the test session).

[5] = in vivo; cited from earlier work
healthy adults [6] = experiment: Chronic AED administration study: NCFC; format: in vivo, human; conditions: one subject, after 30 days of chronic treatment, FIG. 14
Source text: In Progress Study of Effects of Chronic AED Administration. Although their mechanisms of action are varied and incompletely understood, AEDs as a class tend to limit sustained repetitive firing of neurons by antagonizing mechanisms of excitation or by agonizing mechanisms of inhibition. It is likely that such effects have a measurable influence on task-related EEG or ERP parameters. Such biomarkers are being identified through exploratory analyses of data from subjects taking AEDs for 4 weeks. The study, which is being performed by Drs. F. Gilliam and K. Meador, is a randomized, double blind, crossover comparison of the cognitive and behavioral effects of chronic administration of the AEDs lamotrigine and topiramate in healthy adults. Lamotrigine and topiramate are newer AEDs that have been reported to differ in their cognitive side effects.
The study is designed such that subjects are randomized in a first treatment period to receive either lamotrigine or topiramate for 12 weeks (7 weeks of dose escalation followed by 4 weeks of maintenance therapy and then 1 week of tapering off the drug). […] In each test session, subjects have their EEG recorded from 8 scalp electrodes (positioned at AFz, F3, F4, C3, C4, Pz, PO3, PO4) and their EOG recorded from electrodes placed on the supraorbital ridge and outer canthus of each eye, while they perform the WM task and while they rest quietly.

[7] = Experiment 6: phenytoin blood serum levels; format: in vivo; conditions: human, oral, 10 mg/kg bodyweight, 5 hrs after 10 mg/kg bodyweight
healthy normal subjects [8] = experiment: Experiment 6: subjective scales after phenytoin; format: in vivo, human
Method: Experiment: The motivation behind this experiment was to evaluate how EEG and behavioral indices might be used to detect mild cognitive side effects of neurological medications, such as anti-epileptic drugs (AEDs). […] The computerized tasks included a simple reaction time task and easy and difficult versions of the sustained attention WM task, in which difficulty was manipulated by varying WM load. Subjective scales were also administered to assess drowsiness, mood, and perceived drug effects. […] Transportation home was provided at the end of the sessions.

healthy normal subjects [9] = experiment: Experiment 6: resting and task-related EEG and ERP; format: in vivo, human
Method: The computerized tasks included a simple reaction time task and easy and difficult versions of the sustained attention WM task, in which difficulty was manipulated by varying WM load. Subjective scales were also administered to assess drowsiness, mood, and perceived drug effects. […] Transportation home was provided at the end of the sessions. Neurophysiological Alertness: To examine whether there was any neurophysiological evidence for decreased alertness, the EEG data were processed to eliminate artifacts and to compute power spectra and ERPs in each test condition. […] These physiological changes are consistent with the subjective reports of increased drowsiness following phenytoin.

healthy normal subjects [10] = experiment: Experiment 6: task performance; design: species or system human; conditions: in vivo
Method: The computerized tasks included a simple reaction time task and easy and difficult versions of the sustained attention WM task, in which difficulty was manipulated by varying WM load. Subjective scales were also administered to assess drowsiness, mood, and perceived drug effects. […] Transportation home was provided at the end of the sessions.

[11] = blood serum; cited from earlier work
healthy normal subjects [12] = experiment: Experiment 6: NCFC index
Source text: Neurocognitive Function Change Index: The hybrid multivariate function for assessing changes in neurocognitive function described in Experiment 2 was also applied to this dataset, computing degree of neurocognitive change from an average of the placebo test sessions. The resulting index scores were then computed as deviations from the pre-drug test administration index score to illustrate how neurocognitive function varied over the phenytoin test session.

healthy adults [13] = conditions: as reported for these AEDs; cited from earlier work

Cc1nnc2n1-c1ccc(Cl)cc1C(c1ccccc1)=NC2 [alprazolam]
Other subjective effects vs placebo (healthy subjects [1]; 1 mg alprazolam): significantly more sleepy, more “spacey/out of it”, and more clumsy | Visual analogue scale: feel the effects of the drug, vs placebo (healthy subjects [1]; 1 mg alprazolam): heightened sense that they could “feel the effects of the drug” | Onset of felt drug effects (healthy subjects [1]; after drug ingestion): 0.5 h | Peak of felt drug effects (healthy subjects [1]; after drug ingestion): 1.5 to 2 h | Time of largest effect on behavioral performance (healthy subjects [2]; after drug ingestion): 0.5 to 1 h | Accuracy in working memory task vs placebo (healthy subjects [2]; easy and difficult level): less accurate | Response speed in working memory task vs placebo (healthy subjects [2]; easy and difficult level): significantly slower | Time of behavior returning towards baseline levels (healthy subjects [2]; post drug ingestion): 3.5 to 4 h | P300 amplitude vs placebo (healthy subjects [3]; difficult task level): significantly reduced P300 amplitude | Resting beta power vs placebo (healthy subjects [3]; eyes closed state): highly significant increase in beta power | Resting theta power vs placebo (healthy subjects [3]; eyes closed state): did not affect theta power in the eyes closed state | Resting alpha power vs placebo (healthy subjects [3]; eyes open and eyes closed states): significantly reduced alpha power in both eyes open and eyes closed states | Resting beta power vs placebo (healthy subjects [3]; eyes open state): same pattern of enhancement after drug ingestion, but to a lesser extent than in the eyes closed state | Resting theta power vs placebo (healthy subjects [3]; eyes open state): significant decrease in theta power in the eyes open state | Task-related beta power vs placebo (healthy subjects [3]; in vivo): significantly larger on the alprazolam day than on the placebo day | Task-related frontal midline theta vs placebo (healthy subjects [3]; in vivo): significantly attenuated | Task-related slow and fast alpha signals vs placebo (healthy subjects [3]; in vivo): significantly attenuated | P300 amplitude vs placebo (healthy subjects [3]; low load task level and simple reaction time task): did not significantly differ between placebo and alprazolam conditions | Pharmacodynamic profile: onset of cognitive impairment (healthy subjects [4]): rapid and relatively severe | Tpeak [5]: 1 to 2 h | plasma half-life [5]: 6 to 16 h

Nc1nnc(-c2cccc(Cl)c2Cl)c(N)n1 [lamotrigine]
NCFC scores relative to pre-treatment baseline (healthy adults [6]): impaired neurocognitive function was observed in response to both drugs

O=C1NC(=O)C(c2ccccc2)(c2ccccc2)N1 [phenytoin]
concentration at 5 h ([7]; read-out: blood serum level range): 3500 to 13600 ng/mL | concentration at 5 h ([7]; read-out: mean blood serum level): 9000 ng/mL | Visual analogue scale: feel the effects of the drug, vs placebo (healthy normal subjects [8]; 10 mg/kg phenytoin): heightened sense that they could “feel the effects of the drug” | Time of strongest sensations (healthy normal subjects [8]; after drug administration): about 4 hours | Subjective sleepiness vs placebo (healthy normal subjects [8]; in vivo): marginally more sleepy | Attention-related enhancement of N160 response to target stimuli (healthy normal subjects [9]; easy level of the task): significantly reduced in the phenytoin condition | Resting alpha band power vs placebo (healthy normal subjects [9]; eyes-closed): decrease in power in the 9-11 Hz (alpha band) frequency range | Resting theta band power vs placebo (healthy normal subjects [9]; eyes-closed, parieto-occipital electrodes): small increase in power in the 3-6 Hz (theta band) frequency range | Effects on centroparietal P300 component (healthy normal subjects [9]; in vivo): heterogeneous | Difficulty-related enhancement of frontal midline theta signal (healthy normal subjects [9]; low load vs high load WM task): reduced the difficulty-related enhancement of the frontal midline theta signal | Accuracy and reaction time during task performance vs placebo (healthy normal subjects [10]): neither accuracy nor reaction time during task performance differed on average | therapeutic range [11]: 10 to 20 µg/mL | Pharmacodynamic profile: onset of cognitive impairment (healthy normal subjects [12]; FIG. 12): slower to develop and relatively mild | Period of acute impairment in individual subjects (healthy normal subjects [12]; following drug ingestion): 2 to 4 h | Average NCFC index scores (healthy normal subjects [12]; relative to pre-treatment baseline): tended to decline relative to the pre-treatment baseline interval

CC1(C)O[C@@H]2[C@@H](CO[C@@]3(COS(N)(=O)=O)OC(C)(C)O[C@@H]23)O1 [topiramate]
NCFC scores relative to pre-treatment baseline (healthy adults [6]): impaired neurocognitive function was observed in response to both drugs | Cognitive side effect profile (healthy adults [13]): relatively worse cognitive side effect profile than lamotrigine
